What was measured:
Conditions in all cases: three weeks after treatment
[1] = tested on: Amaranthus tuberculatus; assay: Pre-emergence herbicidal evaluation, AMATA; type: in vivo
Source text: (§1) The treated pots are then placed on greenhouse benches, watered and cared for in accordance with conventional greenhouse procedures.

[2] = tested on: Alopecurus myosuroides; assay: Pre-emergence herbicidal evaluation, ALOMY; type: in vivo
Source text: as §1

[3] = tested on: Apera spica venti; assay: Pre-emergence herbicidal evaluation, APESV; type: in vivo
Source text: as §1

[4] = tested on: Echinochloa crus-galli; assay: Pre-emergence herbicidal evaluation, ECHCG; type: in vivo
Source text: as §1

[5] = tested on: Setaria viridis; assay: Pre-emergence herbicidal evaluation, SETVI; type: in vivo
Source text: as §1

[6] = tested on: Lolium perenne; assay: Pre-emergence herbicidal evaluation, LOLPE; type: in vivo
Source text: as §1

[7] = tested on: Triticum aestivum; assay: Pre-emergence herbicidal evaluation, TRZAW; type: in vivo
Source text: as §1

[8] = tested on: Hordeum vulgare; assay: Pre-emergence herbicidal evaluation, HORVW; type: in vivo
Source text: as §1

[9] = tested on: Zea mays; assay: Pre-emergence herbicidal evaluation, ZEAMX; type: in vivo
Source text: as §1

[10] = tested on: Glycine max; assay: Pre-emergence herbicidal evaluation, GLXMA; type: in vivo
Source text: as §1

[11] = tested on: Oryza sativum; assay: Pre-emergence herbicidal evaluation, ORYSA; type: in vivo
Source text: as §1

[12] = tested on: Amaranthus tuberculatus; assay: Post-emergence herbicidal evaluation, AMATA; type: in vivo
[13] = tested on: Galium aparine; assay: Post-emergence herbicidal evaluation, GALAP
[14] = tested on: Alopecurus myosuroides; assay: Post-emergence herbicidal evaluation, ALOMY
[15] = tested on: Apera spica venti; assay: Post-emergence herbicidal evaluation, APESV
Description: The compounds of the invention are tested for pre- and post-emergence herbicidal activity.
Each pot is examined three weeks after treatment and phytotoxicity is assessed according to the rating system set forth below.
These acetone solutions are diluted with water and the resulting formulations applied at dosage levels equivalent of about 0.4 to 0.1 kg per hectare of test compound per pot. After spraying the plants are placed on greenhouse benches and are cared for in the usual manner, commensurate with conventional greenhouse practices.

[16] = tested on: Echinochloa crus-galli; assay: Post-emergence herbicidal evaluation, ECHCG
[17] = tested on: Setaria viridis; assay: Post-emergence herbicidal evaluation, SETVI
[18] = tested on: Lolium perenne; assay: Post-emergence herbicidal evaluation, LOLPE
[19] = tested on: Triticum aestivum; assay: Post-emergence herbicidal evaluation, TRZAW
[20] = tested on: Hordeum vulgare; assay: Post-emergence herbicidal evaluation, HORVW
[21] = tested on: Zea mays; assay: Post-emergence herbicidal evaluation, ZEAMX
[22] = tested on: Glycine max; assay: Post-emergence herbicidal evaluation, GLXMA
[23] = tested on: Oryza sativum; assay: Post-emergence herbicidal evaluation, ORYSA

CCc1nnc(OCC(=O)N(C)C2=CC(C)(C)CC(C)=C2)s1 [Example 5]
6 (6 - Herbicidal effect): phytotoxicity rating ZEAMX ([9]; 0.800 kg/ha)
2 (2 - Slight effect): phytotoxicity rating ECHCG ([4]; 0.100 kg/ha) | phytotoxicity rating HORVW ([8]; 0.200 kg/ha) | phytotoxicity rating ORYSA ([11]; 0.200 kg/ha) | phytotoxicity rating ALOMY ([14]; 0.200 kg/ha)
9 (9 - Complete kill): phytotoxicity rating ALOMY ([2]; 0.400 kg/ha) | phytotoxicity rating ALOMY ([2]; 0.800 kg/ha) | phytotoxicity rating ECHCG ([4]; 0.800 kg/ha) | phytotoxicity rating SETVI ([5]; 0.800 kg/ha)
7 (7 - Good herbicidal effect): phytotoxicity rating APESV ([3]; 0.800 kg/ha) | phytotoxicity rating ECHCG ([4]; 0.200 kg/ha) | phytotoxicity rating SETVI ([5]; 0.400 kg/ha) | phytotoxicity rating LOLPE ([6]; 0.800 kg/ha) | phytotoxicity rating ALOMY ([14]; 0.400 kg/ha)
5 (5 - Definite injury): phytotoxicity rating LOLPE ([6]; 0.100 kg/ha) | phytotoxicity rating LOLPE ([6]; 0.200 kg/ha) | phytotoxicity rating LOLPE ([6]; 0.400 kg/ha) | phytotoxicity rating ORYSA ([11]; 0.800 kg/ha) | phytotoxicity rating GLXMA ([22]; 0.100 kg/ha) | phytotoxicity rating GLXMA ([22]; 0.200 kg/ha) | phytotoxicity rating GLXMA ([22]; 0.400 kg/ha)
4 (4 - Injury): phytotoxicity rating HORVW ([8]; 0.800 kg/ha) | phytotoxicity rating ORYSA ([11]; 0.400 kg/ha) | phytotoxicity rating GALAP ([13]; 0.400 kg/ha) | phytotoxicity rating LOLPE ([18]; 0.400 kg/ha)
1 (1 - Trace effect): phytotoxicity rating AMATA ([1]; 0.400 kg/ha) | phytotoxicity rating TRZAW ([7]; 0.400 kg/ha) | phytotoxicity rating TRZAW ([7]; 0.800 kg/ha) | phytotoxicity rating GLXMA ([10]; 0.800 kg/ha) | phytotoxicity rating ORYSA ([11]; 0.100 kg/ha) | phytotoxicity rating APESV ([15]; 0.400 kg/ha) | phytotoxicity rating LOLPE ([18]; 0.200 kg/ha) | phytotoxicity rating TRZAW ([19]; 0.400 kg/ha) | phytotoxicity rating ORYSA ([23]; 0.200 kg/ha) | phytotoxicity rating ORYSA ([23]; 0.400 kg/ha)
0 (0 - No effect): phytotoxicity rating AMATA ([1]; 0.100 kg/ha) | phytotoxicity rating AMATA ([1]; 0.200 kg/ha) | phytotoxicity rating SETVI ([5]; 0.100 kg/ha) | phytotoxicity rating TRZAW ([7]; 0.100 kg/ha) | phytotoxicity rating TRZAW ([7]; 0.200 kg/ha) | phytotoxicity rating HORVW ([8]; 0.100 kg/ha) | phytotoxicity rating ZEAMX ([9]; 0.100 kg/ha) | phytotoxicity rating ZEAMX ([9]; 0.200 kg/ha) | phytotoxicity rating ZEAMX ([9]; 0.400 kg/ha) | phytotoxicity rating GLXMA ([10]; 0.100 kg/ha) | phytotoxicity rating GLXMA ([10]; 0.200 kg/ha) | phytotoxicity rating GLXMA ([10]; 0.400 kg/ha) | phytotoxicity rating AMATA ([12]; 0.100 kg/ha) | phytotoxicity rating AMATA ([12]; 0.200 kg/ha) | phytotoxicity rating GALAP ([13]; 0.100 kg/ha) | phytotoxicity rating GALAP ([13]; 0.200 kg/ha) | phytotoxicity rating ALOMY ([14]; 0.100 kg/ha) | phytotoxicity rating APESV ([15]; 0.100 kg/ha) | phytotoxicity rating APESV ([15]; 0.200 kg/ha) | phytotoxicity rating ECHCG ([16]; 0.100 kg/ha) | phytotoxicity rating ECHCG ([16]; 0.200 kg/ha) | phytotoxicity rating ECHCG ([16]; 0.400 kg/ha) | phytotoxicity rating SETVI ([17]; 0.100 kg/ha) | phytotoxicity rating SETVI ([17]; 0.200 kg/ha) | phytotoxicity rating SETVI ([17]; 0.400 kg/ha) | phytotoxicity rating LOLPE ([18]; 0.100 kg/ha) | phytotoxicity rating TRZAW ([19]; 0.100 kg/ha) | phytotoxicity rating TRZAW ([19]; 0.200 kg/ha) | phytotoxicity rating HORVW ([20]; 0.100 kg/ha) | phytotoxicity rating HORVW ([20]; 0.200 kg/ha) | phytotoxicity rating HORVW ([20]; 0.400 kg/ha) | phytotoxicity rating ZEAMX ([21]; 0.100 kg/ha) | phytotoxicity rating ZEAMX ([21]; 0.200 kg/ha) | phytotoxicity rating ZEAMX ([21]; 0.400 kg/ha) | phytotoxicity rating ORYSA ([23]; 0.100 kg/ha)
3 (3 - Moderate effect): phytotoxicity rating AMATA ([1]; 0.800 kg/ha) | phytotoxicity rating ALOMY ([2]; 0.100 kg/ha) | phytotoxicity rating APESV ([3]; 0.400 kg/ha) | phytotoxicity rating SETVI ([5]; 0.200 kg/ha) | phytotoxicity rating HORVW ([8]; 0.400 kg/ha) | phytotoxicity rating AMATA ([12]; 0.400 kg/ha)
8 (8 - Approaching complete kill): phytotoxicity rating ALOMY ([2]; 0.200 kg/ha) | phytotoxicity rating ECHCG ([4]; 0.400 kg/ha)

From patent US6339042B1, “Herbicidal N-cyclohexadienyl heteroaryloxyacetamides” (American Cyanamid Co., priority 1999, dated 2002)
